The results in this text go back to US20260226019A1, “NEGATIVE ALLOSTERIC MODULATORS OF METABOTROPIC GLUTAMATE RECEPTOR 2” (Vanderbilt University, priority 2023, published 2026).

For one test, the target named is T1, human mGlu2 (Homo sapiens, UniProt Q14416).
T1 construct: expressed in transfected cells; host or cells: HEK-293 stably co-expressing GIRK channels
Description: mGlu GIRK cell-based thallium flux assay, human mGlu2. Conditions: HEK-293 cells co-expressing human mGlu2 and GIRK, EC80 glutamate, single experiment. The procedure:
(§1) Human embryonic kidney (HEK-293) cell lines stably co-expressing human or rat mGlu2 and G protein-coupled inwardly rectifying potassium (GIRK) channels, or human mGlu3 and GIRK, were used for in vitro evaluation of compound activity in thallium flux assay using a fluorescent thallium indicator dye.
(§2) The day before the assay, GIRK cells co-expressing human mGlu3, human or rat mGlu2, as described above, were plated in black-walled, clear-bottomed, amine-coated 384-well plates at a density of 15,000 cells/[…]/well in the assay medium (glutamine-depleted basal DMEM supplemented with 10% dialyzed FBS, 20 mM HEPES, 1 mM sodium pyruvate). Cells were incubated at 37° C. in the presence of 5% CO2. The next day, assay buffer (Hanks balanced salt solution, 20 mM HEPES, 4.16 mM sodium bicarbonate, pH 7.2) was prepared to dilute compounds and Thallos AM fluorescent dye solution. The 2× Thallos dye solution (final concentration 0.34 μM to the cells) was prepared by mixing the dye stock (2.97 mM in DMSO) to 1:1 with 10% pluronic acid before adding to the assay buffer. Cells were washed with assay buffer using a microplate washer to remove the medium, resulting in 20 μL of buffer remaining in each well. […] During the cell dye loading incubation period, a 10-point concentration serial dilution of compound was created from a 10 mM DMSO compound stock by performing a 1:3 serial dilution in DMSO using the Bravo liquid handler. The 2× compound plate was generated by transferring 0.24 μL of the diluted compound in each well to a daughter plate using an Echo acoustic liquid handler. This is further diluted in 40 μL assay buffer, resulting in a range from […] to 1.5 nM final concentration in the assay. The agonist plate (5×) was prepared to include EC80 glutamate concentration (a concentration to elicit 80% of a maximally effective glutamate concentration) in thallium buffer (125 mM sodium bicarbonate, 1 mM magnesium sulfate, 1.8 mM calcium sulfate, 5 mM glucose, 10 mM HEPES, pH 7.2, 12.5 mM thallium sulfate).
(§3) After dye-loading, cell plates were washed with assay buffer to remove excess extracellular dye using a microplate washer, resulting in 20 μL of buffer remaining in each well. After a ten-minute equilibration period, cell, compound and agonist plates were loaded into a Hamamatsu μCell kinetic imaging plate reader equipped with liquid handler to monitor fluorescence changes at 480 nm excitation and 540 nm emission settings. Briefly, after collection of baseline fluorescence, 20 μL of compound was added and incubated for two minutes and twenty seconds. This is immediately followed by adding 10 μL of glutamate-thallium buffer to the wells containing compound. The fluorescent signal was monitored an additional 2.5 minutes after the glutamate addition. Multiple reference wells containing no compound received either no glutamate (for a baseline reference), EC80 glutamate, or ECmax glutamate (for normalization to maximum response). […] Each compound concentration series occurred one time in each plate, and replicates from two or three plates were used in each experimental run. Thallium solutions were handled and disposed of according to guidelines from the Vanderbilt University Chemical Safety department.
(§4) Data were normalized using a static ratio function (F/F0) by dividing every fluorescent measurement by the initial fluorescent value for the corresponding well. The increase in signal resulting from the glutamate/thallium addition of the second add was measured by determining the slope from 3 seconds to 13 seconds after the addition. The average of all baseline slopes (no compound, no glutamate) was determined and this value was subtracted from all other slope values. The average of all ECmax slopes was determined and this value was used to normalize the baseline-corrected slopes to a percent max value (% Emax).

The next test addresses T2, human mGlu3 (Homo sapiens, UniProt Q14832).
T2 construct: expressed in transfected cells; host or cells: HEK-293 stably co-expressing GIRK channels
Description: mGlu GIRK cell-based thallium flux assay, human mGlu3. The settings on record: HEK-293 cells co-expressing human mGlu3 and GIRK, EC80 glutamate, single experiment. The procedure:
as §1, §2, §3, §4

T1 sequence (Q14416 19-872): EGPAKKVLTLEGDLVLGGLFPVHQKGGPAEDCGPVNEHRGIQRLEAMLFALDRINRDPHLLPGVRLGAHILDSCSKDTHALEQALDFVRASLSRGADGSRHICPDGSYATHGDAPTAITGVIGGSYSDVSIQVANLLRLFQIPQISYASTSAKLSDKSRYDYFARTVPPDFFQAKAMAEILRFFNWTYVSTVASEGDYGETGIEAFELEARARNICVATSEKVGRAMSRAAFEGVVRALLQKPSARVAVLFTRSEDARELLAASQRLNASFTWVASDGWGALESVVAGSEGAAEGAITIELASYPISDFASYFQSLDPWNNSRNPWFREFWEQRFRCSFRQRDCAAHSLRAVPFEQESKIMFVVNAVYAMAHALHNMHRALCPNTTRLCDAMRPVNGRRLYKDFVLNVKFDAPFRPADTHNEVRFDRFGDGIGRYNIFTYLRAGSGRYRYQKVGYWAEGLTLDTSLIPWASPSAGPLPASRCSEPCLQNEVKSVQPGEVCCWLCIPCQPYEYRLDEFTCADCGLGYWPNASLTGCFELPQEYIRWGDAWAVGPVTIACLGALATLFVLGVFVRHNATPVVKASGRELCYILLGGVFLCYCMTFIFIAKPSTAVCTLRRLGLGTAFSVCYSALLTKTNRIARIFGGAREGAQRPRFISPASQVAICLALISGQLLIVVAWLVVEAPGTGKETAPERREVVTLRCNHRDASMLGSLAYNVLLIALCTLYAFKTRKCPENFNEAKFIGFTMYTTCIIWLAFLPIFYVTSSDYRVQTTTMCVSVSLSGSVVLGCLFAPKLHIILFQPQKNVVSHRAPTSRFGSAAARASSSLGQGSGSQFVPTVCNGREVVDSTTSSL
T2 sequence (Q14832 23-879): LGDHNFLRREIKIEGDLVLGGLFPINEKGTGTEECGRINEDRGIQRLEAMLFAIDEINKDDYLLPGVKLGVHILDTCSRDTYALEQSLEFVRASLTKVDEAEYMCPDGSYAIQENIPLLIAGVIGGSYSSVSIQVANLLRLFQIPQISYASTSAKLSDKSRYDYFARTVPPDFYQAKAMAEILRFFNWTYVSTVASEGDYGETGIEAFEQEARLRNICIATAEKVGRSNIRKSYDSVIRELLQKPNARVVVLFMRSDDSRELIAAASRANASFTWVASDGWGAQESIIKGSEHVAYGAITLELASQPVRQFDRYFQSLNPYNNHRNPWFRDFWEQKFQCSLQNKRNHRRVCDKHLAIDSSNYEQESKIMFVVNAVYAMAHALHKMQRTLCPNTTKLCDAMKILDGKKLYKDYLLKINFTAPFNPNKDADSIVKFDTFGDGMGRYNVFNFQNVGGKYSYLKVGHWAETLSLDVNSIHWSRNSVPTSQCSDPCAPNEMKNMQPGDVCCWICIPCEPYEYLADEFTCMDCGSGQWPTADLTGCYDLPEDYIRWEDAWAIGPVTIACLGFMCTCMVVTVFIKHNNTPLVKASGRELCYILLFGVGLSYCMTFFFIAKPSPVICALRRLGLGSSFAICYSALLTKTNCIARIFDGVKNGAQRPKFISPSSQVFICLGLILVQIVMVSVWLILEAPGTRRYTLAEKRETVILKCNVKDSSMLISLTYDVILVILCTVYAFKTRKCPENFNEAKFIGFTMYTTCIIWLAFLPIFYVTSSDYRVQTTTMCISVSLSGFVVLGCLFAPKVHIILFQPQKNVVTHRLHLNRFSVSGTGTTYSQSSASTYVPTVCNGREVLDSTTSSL

Consider `CC(C)n1nccc1-c1cc(-c2ccc(F)cc2F)cc2c1CNC2=O` [Compound 30, 6-(2,4-difluorophenyl)-4-(1-isopropyl-1H-pyrazol-5-yl)isoindolin-1-one], for which the results for the IC50 against human mGlu2 and against human mGlu3 were 126 nM and above 10000 nM, respectively.
With `O=C1NCc2c1cc(-c1ccc(F)cc1F)cc2N1CCn2nccc21` [Compound A2, 6-(2,4-difluorophenyl)-4-(2,3-dihydro-1H-imidazo[1,2-b]pyrazol-1-yl)isoindolin-1-one], half-maximal inhibition on human mGlu2 (IC50) required 218 nM. In addition, at human mGlu3, the “Human mGlu3 GIRK IC50 (nM)” value was “Inactive”.
Regarding `O=C1NCc2c1cc(-c1ccc(F)cc1F)cc2-c1cnn(C2CCOC2)c1` (stereo not shown) [Compound 63, 6-(2,4-difluorophenyl)-4-(1-(tetrahydrofuran-3-yl)-1H-pyrazol-4-yl)isoindolin-1-one], on human mGlu2, inhibition was half-maximal at 203 nM (IC50). For the same compound, the “Human mGlu3 GIRK IC50 (nM)” value at human mGlu3 is reported as “Inactive”.
Turning to `Cc1cc(-c2cc(-c3ccc(F)cc3F)cc3c2CNC3=O)n(C)n1` [Compound 79, 6-(2,4-difluorophenyl)-4-(1,3-dimethyl-1H-pyrazol-5-yl)isoindolin-1-one], the IC50 (as a rule, the concentration at which inhibition is half-maximal) against human mGlu3 is above 10000 nM.
Turning to `O=C1NCc2c1cc(-c1cc(F)c(F)c(F)c1)cc2-c1cnsc1` [Compound 59, 4-(isothiazol-4-yl)-6-(3,4,5-trifluorophenyl)isoindolin-1-one], the IC50 against human mGlu2 was above 10000 nM.
Same read-out and setting: the figure for `O=C1NCc2c1cc(-c1ccc(F)cc1F)cc2-c1cnn(C2CCCC2)c1` [Compound 16, 4-(1-cyclopentyl-1H-pyrazol-4-yl)-6-(2,4-difluorophenyl)isoindolin-1-one] is 3170 nM; for `N#Cc1ccc(-c2cc(-c3ccc(F)cc3F)cc3c2CNC3=O)cn1` [Compound 33, 5-(6-(2,4-difluorophenyl)-1-oxoisoindolin-4-yl)picolinonitrile] it is 1540 nM.
Compound `O=C1NCc2c1cc(-c1ccc(F)cc1F)cc2-c1cnc2ccccc2c1` [Compound 25, 6-(2,4-difluorophenyl)-4-(quinolin-3-yl)isoindolin-1-one] registered a concentration for half-maximal inhibition (IC50) against human mGlu2 of 3310 nM.
Compound `Cc1ncccc1-c1cc(C2=CCOCC2)cc2c1CNC2=O` [Compound 97, 6-(3,6-dihydro-2H-pyran-4-yl)-4-(2-methylpyridin-3-yl)isoindolin-1-one] registered an IC50 against human mGlu2 of 195 nM.
On human mGlu2, `Cc1nn(C)c(C)c1-c1cc(C2CCOCC2)cc2c1CNC2=O` [Compound 98, 6-(tetrahydro-2H-pyran-4-yl)-4-(1,3,5-trimethyl-1H-pyrazol-4-yl)isoindolin-1-one] displayed an IC50 of 985 nM.
At human mGlu2, `COc1cc(F)ccc1-c1cc2c(c(-c3cnsc3)c1)CNC2=O` [Compound 48, 6-(4-fluoro-2-methoxyphenyl)-4-(isothiazol-4-yl)isoindolin-1-one] displayed an IC50 above 10000 nM.
Regarding `O=C1NCc2c1cc(-c1ccc(F)cc1F)cc2-c1ccco1` [Compound 29, 6-(2,4-difluorophenyl)-4-(furan-2-yl)isoindolin-1-one], the “Human mGlu2 GIRK IC50 (nM)” value on human mGlu2 was “Inactive”.
For the compound `Cn1cc2c(n1)CN(c1cc(-c3ccc(F)cc3F)cc3c1CNC3=O)C2` [Compound A22, 6-(2,4-difluorophenyl)-4-(2-methyl-2,6-dihydropyrrolo[3,4-c]pyrazol-5(4H)-yl)isoindolin-1-one], the IC50 against human mGlu2 is above 10000 nM.
In the case of `Cc1cc(-c2cc3c(c(-c4cnsc4)c2)CNC3=O)c(F)cn1` [Compound 61, 6-(5-fluoro-2-methylpyridin-4-yl)-4-(isothiazol-4-yl)isoindolin-1-one], on human mGlu2, 1190 nM corresponded to half-maximal inhibition (IC50).
In turn, `Cc1sc(C)c(-c2cc(-c3ccc(F)cc3F)cc3c2CNC3=O)c1C` [Compound 20, 6-(2,4-difluorophenyl)-4-(2,4,5-trimethylthiophen-3-yl)isoindolin-1-one] registered an IC50 at human mGlu2 of 5260 nM.
The same measure, in the same setting: under `O=C1NCc2c1cc(-c1ccc(F)cc1F)cc2-c1cnn(C(F)F)c1` [Compound 8, 4-(1-(difluoromethyl)-1H-pyrazol-4-yl)-6-(2,4-difluorophenyl)isoindolin-1-one] stands above 10000 nM.
`Cc1cc(-c2cc3c(c(-c4cnsc4)c2)CNC3=O)c(F)cc1F` [Compound 50, 6-(2,4-difluoro-5-methylphenyl)-4-(isothiazol-4-yl)isoindolin-1-one] gave an IC50 at human mGlu2 above 10000 nM.
Still for that read-out and setting: the figure for `O=C1NCc2c1cc(-c1ccc(F)cc1F)cc2N1C[C@H]2C[C@@H]1CO2` (racemic) [Compound A21, rac-4-((1R,4R)-2-oxa-5-azabicyclo[2.2.1]heptan-5-yl)-6-(2,4-difluorophenyl)isoindolin-1-one] is 306 nM.
Same read-out and setting: under `COc1ccc(-c2cc3c(c(-c4cnsc4)c2)CNC3=O)c(F)c1F` [Compound 49, 6-(2,3-difluoro-4-methoxyphenyl)-4-(isothiazol-4-yl)isoindolin-1-one] stands 3480 nM.
As to `O=C1NCc2c1cc(-c1ccc(F)cc1F)cc2-c1ccc(F)cc1F` [Compound 4, 4,6-bis(2,4-difluorophenyl)isoindolin-1-one], at human mGlu2, half-maximal inhibition (IC50) required 2070 nM.
Take `O=C1NCc2c1cc(-c1ccc(F)cc1F)cc2-c1ccc2ncccc2c1` [Compound 24, 6-(2,4-difluorophenyl)-4-(quinolin-6-yl)isoindolin-1-one]: half-maximal inhibition against human mGlu2 (IC50) was put at 1660 nM. The IC50 values of the last two compounds are within 1.5-fold of each other.
Regarding `O=C1NCc2c1cc(-c1ccc(F)cc1F)cc2-c1cnn(C2CCCCC2)c1` [Compound 21, 4-(1-cyclohexyl-1H-pyrazol-4-yl)-6-(2,4-difluorophenyl)isoindolin-1-one], on human mGlu2, the “Human mGlu2 GIRK IC50 (nM)” value is “Inactive”.
With `Cc1cnn(C)c1-c1cc(C2=CCOCC2)cc2c1CNC2=O` [Compound 94, 6-(3,6-dihydro-2H-pyran-4-yl)-4-(1,4-dimethyl-1H-pyrazol-5-yl)isoindolin-1-one], the IC50 against human mGlu2 stood at 340 nM.
Still for that read-out and setting: the figure for `Cc1nn(C)c(C)c1-c1cc(C2=CCOCC2)cc2c1CNC2=O` [Compound 92, 6-(3,6-dihydro-2H-pyran-4-yl)-4-(1,3,5-trimethyl-1H-pyrazol-4-yl)isoindolin-1-one] is 424 nM.
As for `Cc1c(-c2cc(C3CCOCC3)cc3c2CNC3=O)cnn1C` [Compound 99, 4-(1,5-dimethyl-1H-pyrazol-4-yl)-6-(tetrahydro-2H-pyran-4-yl)isoindolin-1-one], at human mGlu2, the IC50 was determined as 2950 nM.
Same read-out and setting: under `Cn1cc(-c2cc(-c3ccc(F)cc3F)cc3c2CNC3=O)cc1C#N` [Compound 14, 4-(6-(2,4-difluorophenyl)-1-oxoisoindolin-4-yl)-1-methyl-1H-pyrrole-2-carbonitrile] stands 3080 nM; under `Cc1c(-c2cc(C3=CCOCC3)cc3c2CNC3=O)cnn1C` [Compound 93, 6-(3,6-dihydro-2H-pyran-4-yl)-4-(1,5-dimethyl-1H-pyrazol-4-yl)isoindolin-1-one], 258 nM; under `O=C1NCc2c1cc(-c1ccc(F)cc1F)cc2-c1ccnc(C(F)(F)F)c1` [Compound 90, 6-(2,4-difluorophenyl)-4-(2-(trifluoromethyl)pyridin-4-yl)isoindolin-1-one], 303 nM.
On the same count and under the same terms, the figure for `O=Cc1ccc(-c2cc3c(c(-c4cnsc4)c2)CNC3=O)c(F)c1F` [Compound 58, 2,3-difluoro-4-(7-(isothiazol-4-yl)-3-oxoisoindolin-5-yl)benzaldehyde] is above 10000 nM; for `O=C1CC2(CN1)CN(c1cc(-c3ccc(F)cc3F)cc3c1CNC3=O)C2` [Compound A20, 6-(2,4-difluorophenyl)-4-(7-oxo-2,6-diazaspiro[3.4]octan-2-yl)isoindolin-1-one] it is 286 nM.
Consider `COc1cc(F)c(-c2cc3c(c(-c4cnsc4)c2)CNC3=O)cc1F` [Compound 52, 6-(2,5-difluoro-4-methoxyphenyl)-4-(isothiazol-4-yl)isoindolin-1-one], for which the “Human mGlu2 GIRK IC50 (nM)” value at human mGlu2 is reported as “Inactive”.
